Test results taken from patent US10004701B2, “Methods and compositions for treating infection” (UNIVERSITY OF ROCHESTER, priority 2012, dated 2018).
Where a name gives a salt, the structure may show the parent alone. Read-outs that look alike come from different tables or passages of the source.

Columns and labels:
Assay in all cases: AK assay 384-well format, Prestwick library screening
E. faecium = type: cell-based, Enterococcus faecium; conditions: 50 μM final drug concentration; for fold induction at 50 µM: Enterococcus faecium, 3 h
[1] = test system: S. aureus strain USA300-0114; type: cell-based, Staphylococcus aureus; conditions: 50 μM final drug concentration; for fold induction at 50 µM: Staphylococcus aureus, USA300, 3 h
K. pneumoniae = type: cell-based, Klebsiella pneumoniae; conditions: 50 μM final drug concentration; for fold induction at 50 µM: Klebsiella pneumoniae, 3 h
[2] = test system: A. baumannii strain 98-37-09; type: cell-based, Acinetobacter baumannii; conditions: 50 μM final drug concentration; for fold induction at 50 µM: Acinetobacter baumannii, 983709, 3 h
P. aeruginosa = type: cell-based, Pseudomonas aeruginosa; conditions: 50 μM final drug concentration; for fold induction at 50 µM: Pseudomonas aeruginosa, 3 h
E. cloacae = type: cell-based, Enterobacter cloacae; conditions: 50 μM final drug concentration; for fold induction at 50 µM: Enterobacter cloacae, 3 h
E. coli = type: cell-based, Escherichia coli; conditions: 50 μM final drug concentration; for fold induction at 50 µM: Escherichia coli, 3 h
[3] = cutoff for positive-scoring molecules 3-fold increase, read-out: AK-based Prestwick Library Screening Results, E. faecium (fold increase in extracellular AK activity)
[4] = cutoff for positive-scoring molecules 3-fold increase, read-out: AK-based Prestwick Library Screening Results, S. aureus (fold increase in extracellular AK activity)
[5] = cutoff for positive-scoring molecules 3-fold increase, read-out: AK-based Prestwick Library Screening Results, K. pneumoniae (fold increase in extracellular AK activity)
[6] = cutoff for positive-scoring molecules 3-fold increase, read-out: AK-based Prestwick Library Screening Results, A. baumannii (fold increase in extracellular AK activity)
[7] = cutoff for positive-scoring molecules 3-fold increase, read-out: AK-based Prestwick Library Screening Results, P. aeruginosa (fold increase in extracellular AK activity)
[8] = cutoff for positive-scoring molecules 3-fold increase, read-out: AK-based Prestwick Library Screening Results, E. cloacae (fold increase in extracellular AK activity)
[9] = cutoff for positive-scoring molecules 3-fold increase, read-out: AK-based Prestwick Library Screening Results, E. coli (fold increase in extracellular AK activity)
[10] = 384-well format, cutoff for positive-scoring molecules 3-fold increase, read-out: AK-based Prestwick Library Screening Results, E. faecium (increase in extracellular AK activity)
[11] = 384-well format, cutoff for positive-scoring molecules 3-fold increase, read-out: AK-based Prestwick Library Screening Results, S. aureus (increase in extracellular AK activity)
[12] = 384-well format, cutoff for positive-scoring molecules 3-fold increase, read-out: AK-based Prestwick Library Screening Results, K. pneumoniae (increase in extracellular AK activity)
[13] = 384-well format, cutoff for positive-scoring molecules 3-fold increase, read-out: AK-based Prestwick Library Screening Results, A. baumannii (increase in extracellular AK activity)
[14] = 384-well format, cutoff for positive-scoring molecules 3-fold increase, read-out: AK-based Prestwick Library Screening Results, P. aeruginosa (increase in extracellular AK activity)
[15] = 384-well format, cutoff for positive-scoring molecules 3-fold increase, read-out: AK-based Prestwick Library Screening Results, E. cloacae (increase in extracellular AK activity)
[16] = 384-well format, cutoff for positive-scoring molecules 3-fold increase, read-out: AK-based Prestwick Library Screening Results, E. coli (increase in extracellular AK activity)
[17] = planktonic, cutoff for positive-scoring molecules 3-fold increase
[18] = planktonic, cutoff for positive 3-fold increase
[19] = planktonic E. faecium, positive cutoff 3-fold increase, read-out: AK-based Prestwick library screening result, E. faecium (fold increase in extracellular AK activity)
[20] = planktonic S. aureus, positive cutoff 3-fold increase, read-out: AK-based Prestwick library screening result, S. aureus (fold increase in extracellular AK activity)
[21] = planktonic K. pneumoniae, positive cutoff 3-fold increase, read-out: AK-based Prestwick library screening result, K. pneumoniae (fold increase in extracellular AK activity)
[22] = planktonic A. baumannii, positive cutoff 3-fold increase, read-out: AK-based Prestwick library screening result, A. baumannii (fold increase in extracellular AK activity)
[23] = planktonic P. aeruginosa, positive cutoff 3-fold increase, read-out: AK-based Prestwick library screening result, P. aeruginosa (fold increase in extracellular AK activity)
[24] = planktonic E. cloacae, positive cutoff 3-fold increase, read-out: AK-based Prestwick library screening result, E. cloacae (fold increase in extracellular AK activity)
[25] = planktonic E. coli, positive cutoff 3-fold increase, read-out: AK-based Prestwick library screening result, E. coli (fold increase in extracellular AK activity)

In the case of `O=C(c1ccccc1)c1ccc2n1CCC2C(=O)O` (centres unmarked) [Ketorolac tromethamine], the fold induction at 50 µM (E. faecium; [3]) is reported as 1, the fold induction at 50 µM [1, 4] is reported as 1.1 and the fold induction at 50 µM (K. pneumoniae; [5]) is reported as 1. It also gave a fold induction at 50 µM [2, 6] of 1, a fold induction at 50 µM (P. aeruginosa; [7]) of 1 and a fold induction at 50 µM (E. cloacae; [8]) of 1.4. The fold induction at 50 µM (E. coli; [9]) was 1.3.
Molecule `CN1CCC(=C2c3ccccc3CC(=O)c3sccc32)CC1` [Ketotifen fumarate] has a fold induction at 50 µM (E. faecium; planktonic, cutoff for positive 3-fold increase, read-out: AK-based Prestwick Library Screening Results, E. faecium (fold increase in extracellular AK activity)) of 1, a fold induction at 50 µM ([1]; planktonic, cutoff for positive 3-fold increase, read-out: AK-based Prestwick Library Screening Results, S. aureus (fold increase in extracellular AK activity)) of 1.1 and a fold induction at 50 µM (K. pneumoniae; planktonic, cutoff for positive 3-fold increase, read-out: AK-based Prestwick Library Screening Results, K. pneumoniae (fold increase in extracellular AK activity)) of 0.9. It also gave a fold induction at 50 µM ([2]; planktonic, cutoff for positive 3-fold increase, read-out: AK-based Prestwick Library Screening Results, A. baumannii (fold increase in extracellular AK activity)) of 1.1, a fold induction at 50 µM (P. aeruginosa; planktonic, cutoff for positive 3-fold increase, read-out: AK-based Prestwick Library Screening Results, P. aeruginosa (fold increase in extracellular AK activity)) of 1.1 and a fold induction at 50 µM (E. cloacae; planktonic, cutoff for positive 3-fold increase, read-out: AK-based Prestwick Library Screening Results, E. cloacae (fold increase in extracellular AK activity)) of 1.7. For the same molecule, the fold induction at 50 µM (E. coli; planktonic, cutoff for positive 3-fold increase, read-out: AK-based Prestwick Library Screening Results, E. coli (fold increase in extracellular AK activity)) was 1.3.
Work on `COc1c2occc2c(OC)c2c(=O)cc(C)oc12` [Khellin] yielded a fold induction at 50 µM (E. faecium; [10]) of 0.9, a fold induction at 50 µM [1, 11] of 0.7 and a fold induction at 50 µM (K. pneumoniae; [12]) of 0.6. It also gave a fold induction at 50 µM [2, 13] of 0.7, a fold induction at 50 µM (P. aeruginosa; [14]) of 0.7 and a fold induction at 50 µM (E. cloacae; [15]) of 0.7. For the same molecule, the fold induction at 50 µM (E. coli; [16]) was 0.6.
With `Cl.OC1CCCCC1N1CCC(c2ccccc2)CC1` (stereo not drawn) [L(−)-vesamicol hydrochloride] the “AK-based Prestwick Library Screening Results, E. faecium (fold increase in extracellular AK activity)” value (E. faecium; [17]) was 0.9, the “AK-based Prestwick Library Screening Results, S. aureus (fold increase in extracellular AK activity)” value [1, 17] was 0.8 and the “AK-based Prestwick Library Screening Results, K. pneumoniae (fold increase in extracellular AK activity)” value (K. pneumoniae; [17]) was 0.7. The “AK-based Prestwick Library Screening Results, A. baumannii (fold increase in extracellular AK activity)” value [2, 17] was 0.8, the “AK-based Prestwick Library Screening Results, P. aeruginosa (fold increase in extracellular AK activity)” value (P. aeruginosa; [17]) was 0.8 and the “AK-based Prestwick Library Screening Results, E. cloacae (fold increase in extracellular AK activity)” value (E. cloacae; [17]) was 1.2. For the same molecule, the “AK-based Prestwick Library Screening Results, E. coli (fold increase in extracellular AK activity)” value (E. coli; [17]) was 0.8.
With `CC(CCc1ccccc1)NCC(O)c1ccc(O)c(C(N)=O)c1` (centres unmarked) [Labetalol hydrochloride] the fold induction at 50 µM (E. faecium; [10]) was 0.9, the fold induction at 50 µM [1, 11] was 0.8 and the fold induction at 50 µM (K. pneumoniae; [12]) was 0.7. For the same molecule, the fold induction at 50 µM [2, 13] was 0.9, the fold induction at 50 µM (P. aeruginosa; [14]) was 0.9 and the fold induction at 50 µM (E. cloacae; [15]) was 1.3. It also gave a fold induction at 50 µM (E. coli; [16]) of 0.9.
In the case of `O=C(O)[C@H](O)[C@@H](O)[C@H](O[C@@H]1O[C@H](CO)[C@H](O)[C@H](O)[C@H]1O)[C@H](O)CO` [Lactobionic acid], the “AK-based Prestwick Library Screening Results, E. faecium (fold increase in extracellular AK activity)” value (E. faecium; [18]) is reported as 1.0, the “AK-based Prestwick Library Screening Results, S. aureus (fold increase in extracellular AK activity)” value [1, 18] is reported as 0.8 and the “AK-based Prestwick Library Screening Results, K. pneumoniae (fold increase in extracellular AK activity)” value (K. pneumoniae; [18]) is reported as 0.9. For the same molecule, the “AK-based Prestwick Library Screening Results, A. baumannii (fold increase in extracellular AK activity)” value [2, 18] was 1.1, the “AK-based Prestwick Library Screening Results, P. aeruginosa (fold increase in extracellular AK activity)” value (P. aeruginosa; [18]) was 1.0 and the “AK-based Prestwick Library Screening Results, E. cloacae (fold increase in extracellular AK activity)” value (E. cloacae; [18]) was 1.2. The “AK-based Prestwick Library Screening Results, E. coli (fold increase in extracellular AK activity)” value (E. coli; [18]) was 1.0.
For `CC(=O)O[C@H]1C[C@H](O[C@H]2[C@@H](O)C[C@H](O[C@H]3[C@@H](O)C[C@H](O[C@H]4CC[C@@]5(C)[C@H](CC[C@@H]6[C@@H]5C[C@@H](O)[C@]5(C)[C@@H](C7=CC(=O)OC7)CC[C@]65O)C4)O[C@@H]3C)O[C@@H]2C)O[C@H](C)[C@H]1O[C@@H]1O[C@H](CO)[C@@H](O)[C@H](O)[C@H]1O` [Lanatoside C], the “AK-based Prestwick Library Screening Results, E. faecium (fold increase in extracellular AK activity)” value (E. faecium; planktonic, […]) was 0.9, the “AK-based Prestwick Library Screening Results, S. aureus (fold increase in extracellular AK activity)” value ([1]; planktonic, […]) was 0.7 and the “AK-based Prestwick Library Screening Results, K. pneumoniae (fold increase in extracellular AK activity)” value (K. pneumoniae; planktonic, […]) was 0.6. For the same molecule, the “AK-based Prestwick Library Screening Results, A. baumannii (fold increase in extracellular AK activity)” value ([2]; planktonic, […]) was 0.8, the “AK-based Prestwick Library Screening Results, P. aeruginosa (fold increase in extracellular AK activity)” value (P. aeruginosa; planktonic, […]) was 0.6 and the “AK-based Prestwick Library Screening Results, E. cloacae (fold increase in extracellular AK activity)” value (E. cloacae; planktonic, […]) was 1.0. For the same molecule, the “AK-based Prestwick Library Screening Results, E. coli (fold increase in extracellular AK activity)” value (E. coli; planktonic, […]) was 0.6.
In the case of `Cc1c(OCC(F)(F)F)ccnc1C[S+]([O-])c1nc2ccccc2[nH]1` (centres unmarked) [Lansoprazole], the fold induction at 50 µM (E. faecium; [19]) is reported as 0.6, the fold induction at 50 µM [1, 20] is reported as 0.2 and the fold induction at 50 µM (K. pneumoniae; [21]) is reported as 0.5. It also gave a fold induction at 50 µM [2, 22] of 0.6, a fold induction at 50 µM (P. aeruginosa; [23]) of 0.7 and a fold induction at 50 µM (E. cloacae; [24]) of 1. For the same molecule, the fold induction at 50 µM (E. coli; [25]) was 0.6.
Molecule `CC[C@@H](C(=O)[C@@H](C)[C@@H](O)[C@H](C)CCc1ccc(C)c(O)c1C(=O)O)[C@H]1O[C@](CC)([C@H]2CC[C@](O)(CC)[C@H](C)O2)C[C@@H]1C` [Lasalocid sodium salt] has a fold induction at 50 µM (E. faecium; planktonic, cutoff for positive-scoring molecules 3-fold increase, read-out: AK-based Prestwick Library Screening Results, E. faecium (fold increase in extracellular AK activity)) of 0.9, a fold induction at 50 µM ([1]; planktonic, cutoff for positive-scoring molecules 3-fold increase, read-out: AK-based Prestwick Library Screening Results, S. aureus (fold increase in extracellular AK activity)) of 3.7 and a fold induction at 50 µM (K. pneumoniae; planktonic, cutoff for positive-scoring molecules 3-fold increase, read-out: AK-based Prestwick Library Screening Results, K. pneumoniae (fold increase in extracellular AK activity)) of 0.7. For the same molecule, the fold induction at 50 µM ([2]; planktonic, cutoff for positive-scoring molecules 3-fold increase, read-out: AK-based Prestwick Library Screening Results, A. baumannii (fold increase in extracellular AK activity)) was 2.6, the fold induction at 50 µM (P. aeruginosa; planktonic, cutoff for positive-scoring molecules 3-fold increase, read-out: AK-based Prestwick Library Screening Results, P. aeruginosa (fold increase in extracellular AK activity)) was 0.7 and the fold induction at 50 µM (E. cloacae; planktonic, cutoff for positive-scoring molecules 3-fold increase, read-out: AK-based Prestwick Library Screening Results, E. cloacae (fold increase in extracellular AK activity)) was 1. The fold induction at 50 µM (E. coli; planktonic, cutoff for positive-scoring molecules 3-fold increase, read-out: AK-based Prestwick Library Screening Results, E. coli (fold increase in extracellular AK activity)) was 1.
`Cc1oncc1C(=O)Nc1ccc(C(F)(F)F)cc1` [Leflunomide] gave a fold induction at 50 µM (E. faecium; [3]) of 0.7, a fold induction at 50 µM [1, 4] of 0.6 and a fold induction at 50 µM (K. pneumoniae; [5]) of 0.6. For the same molecule, the fold induction at 50 µM [2, 6] was 0.8, the fold induction at 50 µM (P. aeruginosa; [7]) was 0.8 and the fold induction at 50 µM (E. cloacae; [8]) was 1.5. For the same molecule, the fold induction at 50 µM (E. coli; [9]) was 0.8.
For `N#Cc1ccc(C(c2ccc(C#N)cc2)n2cncn2)cc1` [Letrozole], the fold induction at 50 µM (E. faecium; [19]) was 1, the fold induction at 50 µM [1, 20] was 1.2 and the fold induction at 50 µM (K. pneumoniae; [21]) was 1.1. For the same molecule, the fold induction at 50 µM [2, 22] was 1.3, the fold induction at 50 µM (P. aeruginosa; [23]) was 1 and the fold induction at 50 µM (E. cloacae; [24]) was 1.4. For the same molecule, the fold induction at 50 µM (E. coli; [25]) was 1.2.
